According to patent US10716749B2, “Methods and compositions for treating a renal disease condition in a subject” (Palo Alto Investors, priority 2005, dated 2020):

What was measured:
[1] = system: Patients with a clinical diagnosis of hypertension; assay: Intrarenal administration of a renin inhibitor to treat hypertension; assay type: in vivo, human; conditions: weekly infusions via an intrarenal catheter; control: saline infusions; sphygmomanometer
Protocol: Patients are enrolled on the basis of a clinical diagnosis of hypertension based on serial systolic and diastolic blood pressure measurements by sphygmomanometer. Treatment subjects are treated by weekly infusions of Aliskiren via an intrarenal catheter.

[2] = system: Patients with anticipated use of radiocontrast prior to diagnostic coronary catherization; assay: Intrarenal administration of metoprolol to prevent contrast nephropathy; assay type: in vivo, human; conditions: intrarenal infusion 1 hour prior to the procedure; patients receiving radiocontrast
Protocol: Patients are prospectively enrolled on the basis of anticipated use of radiocontrast prior to a scheduled diagnostic coronary catherization. Treatment subjects are treated by intrarenal infusion of metoprolol 1 hour prior to the procedure.

| SMILES | diastolic blood pressure measurements compared to control [1] | systolic blood pressure measurements compared to control [1] | incidence of contrast nephropathy (as indicated by a greater than 25% increase in serum creatinine post-procedure) as compared to control [2] |
| --- | --- | --- | --- |
| COCCCOc1cc(C[C@@H](C[C@H](N)[C@@H](O)C[C@H](C(=O)NCC(C)(C)C(N)=O)C(C)C)C(C)C)ccc1OC [Aliskiren] | significant reduction | significant reduction | – |
| COCCc1ccc(OCC(O)CNC(C)C)cc1 (stereo not drawn) [metoprolol] | – | – | significant reduction |
